From US10316017B2, “COT modulators and methods of use thereof” (Gilead Sciences, Inc., priority 2015, dated 2019) come the findings set out here.

Assay [1] has as its system TNFα production in LPS-stimulated human monocytes. The experiment in a line: Cot Monocyte TNFα Cell Based Assay. Particulars: Homo sapiens, Monocyte, read-out: EC50 TNF. The essentials: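 Percent-of-control values derive from TR-FRET ratios of TNFα in spun-down media, referenced to unstimulated and LPS-stimulated wells. Exposure: 1 h compound preincubation, then 50 pg/ml LPS for 4 h, both at 37 °C, with 0.5% final DMSO.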

Assay [2] addresses T1, human Cot catalytic domain (30-397 amino acids) (Homo sapiens, UniProt P41279).
T1 construct: Purified recombinant human Cot catalytic domain (30-397 amino acids) was purchased from Cama Biosciences; purchased Cama Biosciences (so in the source)
The assay is described as follows: High Throughput Cot Biochemical Assay (KinEASE TR-FRET). Particulars: read-out: IC50 HTRF. The essentials: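 Phosphorylation of 1 μM XL665-STK3 peptide by 5 nM Cot catalytic domain was measured by time-resolved FRET using a europium […] antibody. ATP was 400 μM; buffer was 10 mM MOPS pH 7.0 with Mg2+ and DTT.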
On the technique in general: Time-resolved FRET reads energy transfer from a long-lived donor to a nearby acceptor.

Where [3] appears, read: LPS-stimulated human monocytes, TNFα TR-FRET.
Where [4] appears, read: Cot KinEASE TR-FRET, 400 μM ATP.
[5] abbreviates: TNFα in LPS-stimulated human monocytes.
[6] abbreviates: Cot biochemical HTRF (KinEASE TR-FRET) assay.

Where two headings read alike, the source gives them in different places. Where only a bound is given, the exact number is not on record here.

T1 sequence (P41279 30-397): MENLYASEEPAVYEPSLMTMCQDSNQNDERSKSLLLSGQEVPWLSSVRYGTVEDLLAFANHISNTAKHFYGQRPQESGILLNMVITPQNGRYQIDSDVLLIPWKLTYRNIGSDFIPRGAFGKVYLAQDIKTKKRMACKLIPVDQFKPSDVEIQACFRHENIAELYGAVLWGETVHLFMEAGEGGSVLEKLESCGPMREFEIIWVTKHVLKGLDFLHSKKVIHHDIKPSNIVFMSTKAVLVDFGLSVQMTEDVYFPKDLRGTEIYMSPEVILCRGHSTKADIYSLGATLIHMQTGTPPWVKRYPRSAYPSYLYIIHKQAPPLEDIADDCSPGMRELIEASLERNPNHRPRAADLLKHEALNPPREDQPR

Take `Cc1c(C#N)cccc1[C@H](Nc1cc(Cl)c2ncc(C#N)c(NCC(C)(C)C(F)(F)F)c2c1)c1cn(C2(C3CC3)CC2)nn1` [Example 1105, (S)-6-(((1-([1,1'-bi(cyclopropan)]-1-yl)-1H-1,2,3-triazol-4-yl)(3-cyano-2-methylphenyl)methyl)amino)-8-chloro-4-((3,3,3-trifluoro-2,2-dimethylpropyl)amino)quinoline-3-carbonitrile]: the 50% effective concentration (EC50) (in general, the concentration needed to bring the measured effect to its halfway point) in assay [1] (setting [3]) stood at 0.09 µM. Besides, the IC50 (commonly the concentration that gives 50% inhibition) in assay [2] (setting [4]) was found to be 0.005 µM.

Regarding `N#Cc1cnc2c(Cl)cc(N[C@@H](c3ccccc3)c3cn(CCCN4CCCC4)nn3)cc2c1Nc1ccc(F)c(Cl)c1` [Example 545, (S)-8-chloro-4-((3-chloro-4-fluorophenyl)amino)-6-((phenyl (1-(3-(pyrrolidin-1-yl)propyl)-1H-1,2,3-triazol-4-yl)methyl)amino)quinoline-3-carbonitrile], in assay [1] (setting [5]), the EC50 is 0.088 µM. The IC50 in assay [2] (setting [6]) stood at 0.003 µM.

Turning to `C[C@H](CNc1c(C#N)cnc2c(Cl)cc(N[C@@H](c3ccc(Cl)cc3)c3cn(C4CCN(C(C)(C)C)CC4)nn3)cc12)c1ccccc1` [Example 658, 6-(((S)-(1-(1-(tert-butyl)piperidin-4-yl)-1H-1,2,3-triazol-4-yl)(4-chlorophenyl)methyl)amino)-8-chloro-4-(((S)-2-phenylpropyl)amino)quinoline-3-carbonitrile], in assay [1] (setting [5]), the EC50 was determined as 12.2 µM. The 50% inhibitory concentration (IC50) in assay [2] (setting [6]) came to 0.027 µM.

As for `[2H][C@](Nc1cc(Cl)c2ncc(C#N)c(N[C@H](c3ccccc3)[C@@H]3C[C@H]3C#N)c2c1)(c1ccc(F)cc1)c1cn(C2CC2)nn1` [Example 162, 8-chloro-4-(((S)-((1R,2R)-2-cyanocyclopropyl) (phenyl)methyl)amino)-6-(((S)-(1-cyclopropyl-1H-1,2,3-triazol-4-yl)(4-fluorophenyl)methyl-d)amino)quinoline-3-carbonitrile], the half-maximal effective concentration (EC50) in assay [1] (setting [5]) was more than 10 µM. Moreover, the IC50 in assay [2] (Cot KinEASE TR-FRET (HTRF) biochemical assay, 400 μM ATP) worked out at 7.89 µM.

Take `Cc1c([C@H](Nc2cc(Cl)c3ncc(C#N)c(NCC(C)(C)C)c3c2)c2cn(C3(C(F)F)CC3)nn2)cccc1-n1ccnc1` [Example 1069, (S)-6-(((3-(1H-imidazol-1-yl)-2-methylphenyl)(1-(1-(difluoromethyl)cyclopropyl)-1H-1,2,3-triazol-4-yl)methyl)amino)-8-chloro-4-(neopentylamino)quinoline-3-carbonitrile]: the concentration for a half-maximal effect (EC50) in assay [1] (setting [3]) turned out to be 0.054 µM. In assay [2] (setting [4]), the half-maximal inhibitory concentration (IC50) was determined as 0.002 µM.

In the case of `Cc1c(-c2cnn(C)c2)cccc1[C@H](Nc1cc(C#N)c2ncc(C#N)c(NCC(C)(C)C)c2c1)c1cn(C2(C(F)(F)F)CC2)nn1` [Example 1138, (S)-6-(((2-methyl-3-(1-methyl-1H-pyrazol-4-yl)phenyl)(1-(1-(trifluoromethyl)cyclopropyl)-1H-1,2,3-triazol-4-yl)methyl)amino)-4-(neopentylamino)quinoline-3,8-dicarbonitrile], the EC50 in assay [1] (setting [3]) stood at 0.061 µM. For the same molecule, the half-maximal inhibitory concentration (IC50) in assay [2] (setting [4]) was found to be 0.004 µM.

`CC[C@@H](C)Nc1c(C#N)cnc2c(Cl)cc(N[C@@H](c3ccccc3)c3cn(C4CCN(C(C)(C)C)CC4)nn3)cc12` [Example 590, 4-(((R)-sec-butyl)amino)-6-(((S)-(1-(1-(tert-butyl)piperidin-4-yl)-1H-1,2,3-triazol-4-yl)(phenyl)methyl)amino)-8-chloroquinoline-3-carbonitrile]: the EC50 in assay [1] (setting [5]) was determined as 3.52 µM. Moreover, the IC50 in assay [2] (setting [6]) is 0.131 µM.

Consider `Cc1c([C@H](Nc2cc(C#N)c3ncc(C#N)c(NCC(C)(C)C)c3c2)c2cn(C3(C(F)(F)F)CC3)nn2)cccc1-n1cncn1` [Example 1043, (S)-6-(((2-methyl-3-(1H-1,2,4-triazol-1-yl)phenyl)(1-(1-(trifluoromethyl)cyclopropyl)-1H-1,2,3-triazol-4-yl)methyl)amino)-4-(neopentylamino)quinoline-3,8-dicarbonitrile], for which the 50% effective concentration (EC50) in assay [1] (setting [3]) came out at 0.11 µM. In addition, the IC50 in assay [2] (setting [4]) amounted to 0.003 µM.
